Experimental data taken from article PMC10636063, “Progesterone activation of β1-containing BK channels involves two binding sites” (Nature Communications, 2023).
“And” between values parts separate entries of the source, which are not always exact repeats. Equal entries are not always repeated.

What was measured:
[1] = target: T1, slo1 (cbv1 isoform)+β1 BK channels (Rattus norvegicus, UniProt P97678); experiment: Channel activity (NPo) in POPE/POPS planar lipid bilayers, cbv1+β1; type: biochemical; conditions: for action on channel activity (NPo): 10 μM, cis chamber, vs DMSO; for normalized NPo, time course Fig 2E: 10uM PROG
T1 construct: made in house; host or cells: CHO cells, transient transfection; sucrose-gradient membrane preparation
Source text: BK channel-forming slo1 cDNA (cbv1 isoform; AY330293) was cloned from rat cerebral artery SM cells, and inserted into pcDNA3.1 vector as described. BK β1 cDNA (KCNMB1 product; NP_011452; FJ154955) were isolated from rat cerebral artery SM cells and cloned as described. β4 cDNA (KCNMB4; NP_055320; AY028605) were generously provided by Dr. Ligia Toro. CHO cells were transiently transfected with cbv1 ± β1-, or β4-carrying pcDNA3.1 using X-tremeGENE HP (Sigma-Aldrich). Mutations to β1/4 cDNAs were conducted by Genscript, with sequences being confirmed to be >99% identical to KCNMB1 product; NP_011452 or β4 KCNMB4; NP_055320; respectively. β1/4 and mutant constructs were flag-tagged (DYKDDDDK-tag) by Genscript services for subsequent immunoprecipitation and use in microscale thermophoresis studies.
Proteins for electrophysiological recordings in artificial lipid bilayers remained untagged. Cells were transiently transfected as described above, pelleted and re-suspended on ice in 10 ml of buffer solution of the following composition (mM): 30 KCl, 2 MgCl2, 10 HEPES, 5 EGTA; pH 7.2. A membrane preparation was obtained using a sucrose gradient as described. Aliquots were stored at −80 °C. BK channel-mediated ionic current was recorded in planar lipid bilayers consisting of a POPE:POPS 3:1 (w/w) mixture. Lipid mixtures were dried under N2 and re-suspended in 25 mg/ml of n-decane BK currents following incorporation into horizontal bilayers at 300/30 mM cis/trans gradient as detailed elsewhere. Ion currents were obtained during a 10-min gap-free recording at 0 mV in the presence of 0.01, 10 μM PROG, 10 μM PROG-oxime, or vehicle control (dimethyl sulfoxide; DMSO). Currents were obtained in gap-free mode using a Warner BC-525D amplifier, low pass-filtered at 1 kHz and sampled at 5 kHz with Digidata 1550B/pCLAMP 11 (Molecular Devices). For comparison with previous data from us[16],[17],[45]–[47], studies were conducted at 20–22 °C. […]
Patch-clamp and bilayer data were analyzed using Clampfit 10.7 software (Molecular Devices). NPo was used as an index of channel steady-state activity where N = number of channels in the patch (defined as a maximal number of opening levels at Po≤1) and Po=single channel open probability. Drug-induced NPo changes were determined by comparing baseline NPo (i.e., NPo with the patch/cell perfused with bath solution) to the NPo from the same patch/cell exposed to the agent under study (DMSO/PROG/oxime) dissolved in bath solution. NPo and mean open time values were automatically calculated using Clampfit 10.7, the latter using a 50% threshold detection event.

[2] = system: de-endothelialized, pressurized MCA segments (C57BL/6); experiment: Cerebral artery diameter in vitro, de-endothelialized pressurized MCA segments; parameters: species or system mouse
Source text: Eight-12 week-old C57BL/6J and KCNMB1^−/− on C57BL/6 background mice of both sexes were deeply anesthetized with isoflurane via inhalation in a tightly sealed jar. Resistance size MCAs (~100 μm in external diameter) were dissected out of the mouse brains after animal euthanasia with sharp scissors. For de-endothelialized records, the endothelium was removed by passing an air bubble into the vessel lumen for 90 s[30]. This method has been consistently used by our group and validated using endothelium-dependent versus endothelium-independent vasodilators[16],[26]. Arteries were cannulated as previously described by our group[26],[40]. MCAs were cut into 5 to 10 mm-long segments under a microscope (Nikon SMZ645). The segment was cannulated at each end, and the artery exterior was continuously perfused with physiologic sodium saline (PSS) of the following composition (mM): 119 NaCl, 4.7 KCl, 1.2 KH2PO4, 1.6 CaCl2, 1.2 MgSO4, 0.023 EDTA, 11 glucose, 24 NaHCO3, pH=7.4. PSS was continuously bubbled with an O2/CO2/N2 (21/5/74%) gas mixture and maintained at 35–37 °C. The artery external wall diameter was measured using the automatic edge-detection function of lonWizard software (lonOptix) via Sanyo VCB-3512T camera (Sanyo Electric Co.). Arteries were first incubated at an intravascular pressure of 10 mm Hg for 10 min. Then intravascular pressure was increased to 60 mmHg and held steady throughout the experiment to induce myogenic tone development and maintenance[19],[30],[51]. Each artery segment was exposed to PROG, PROG-oxime (in presence and absence of 1 µM paxilline) only once to avoid development of desensitization during repeated applications of PROG-containing solution. To determine arterial viability, arterial contractility was probed with a high KCl solution at the end of each experiment. The high KCl solution was composed of the following composition (mM): 63.7 NaCl, 60 KCl, 1.2 KH2PO4, 1.2 MgSO4, 0.023 EDTA, 11 glucose, 24 NaHCO3, 1.6 CaCl2, pH=7.4. Like PSS, the high-KCl solution was continuously bubbled with O2/CO2/N2 (21/5/74%) gas mixture and maintained at 35–37 °C.

[3] = 10 μM in the presence of 1 μM paxilline

T1 sequence (P97678 whole entry, canonical isoform): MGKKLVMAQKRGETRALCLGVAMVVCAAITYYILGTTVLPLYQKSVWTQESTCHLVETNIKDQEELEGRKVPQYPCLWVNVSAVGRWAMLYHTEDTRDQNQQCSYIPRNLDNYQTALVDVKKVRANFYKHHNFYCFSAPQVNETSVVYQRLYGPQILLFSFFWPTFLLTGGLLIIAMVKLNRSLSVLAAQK
T1 sequence (Q62976 1-1148 isoform Q62976-2 partner): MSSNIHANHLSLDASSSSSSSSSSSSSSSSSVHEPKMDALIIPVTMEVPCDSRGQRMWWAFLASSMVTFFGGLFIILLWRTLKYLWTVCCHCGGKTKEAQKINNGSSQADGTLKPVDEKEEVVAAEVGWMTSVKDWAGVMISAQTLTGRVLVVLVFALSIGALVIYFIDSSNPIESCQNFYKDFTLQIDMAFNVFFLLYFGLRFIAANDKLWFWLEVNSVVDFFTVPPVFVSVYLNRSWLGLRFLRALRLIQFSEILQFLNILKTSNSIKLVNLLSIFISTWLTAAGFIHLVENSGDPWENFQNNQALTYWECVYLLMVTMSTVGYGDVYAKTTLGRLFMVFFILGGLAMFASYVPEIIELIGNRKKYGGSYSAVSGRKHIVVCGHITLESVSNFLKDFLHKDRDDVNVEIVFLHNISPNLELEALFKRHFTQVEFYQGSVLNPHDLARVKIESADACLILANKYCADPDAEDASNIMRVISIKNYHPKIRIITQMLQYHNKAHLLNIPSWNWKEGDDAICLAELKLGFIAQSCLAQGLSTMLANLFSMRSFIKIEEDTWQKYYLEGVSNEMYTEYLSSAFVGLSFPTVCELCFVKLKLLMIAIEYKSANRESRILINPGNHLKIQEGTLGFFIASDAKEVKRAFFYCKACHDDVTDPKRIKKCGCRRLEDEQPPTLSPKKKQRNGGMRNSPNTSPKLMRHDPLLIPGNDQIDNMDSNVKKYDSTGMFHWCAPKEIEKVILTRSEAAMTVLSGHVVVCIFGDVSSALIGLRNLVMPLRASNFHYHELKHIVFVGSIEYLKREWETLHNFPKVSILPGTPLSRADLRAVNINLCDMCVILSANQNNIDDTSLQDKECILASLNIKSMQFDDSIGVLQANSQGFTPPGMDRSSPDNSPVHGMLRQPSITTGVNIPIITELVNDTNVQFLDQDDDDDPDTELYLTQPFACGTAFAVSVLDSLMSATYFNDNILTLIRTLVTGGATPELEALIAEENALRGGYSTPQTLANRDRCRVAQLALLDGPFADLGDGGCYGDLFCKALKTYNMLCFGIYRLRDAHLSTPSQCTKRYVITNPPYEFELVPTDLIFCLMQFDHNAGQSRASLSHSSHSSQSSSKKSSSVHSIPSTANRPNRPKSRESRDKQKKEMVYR

`CC(=O)C1CCC2C3CCC4=CC(=NOCC(=O)O)CCC4(C)C3CCC12C` (stereo not drawn) [PROG-oxime, progesterone 3-(O-carboxymethyl)oxime] was tested, and the NPo/NPobasal ([1]; 10 μM PROG-oxime, min 8, single records) was 1.05 and 1.498 and 1.058 and 0.7956 and 1.316, the NPo/NPobasal ([1]; 10 μM PROG-oxime, min 9, single records) was 1.025 and 1.49 and 0.9987 and 0.8873 and 1.604 and the NPo/NPobasal ([1]; 10 μM PROG-oxime, min 10, single records) was 1.45 and 1.329 and 1.113 and 0.8109 and 1.283. For the same molecule, the “maximal changes in channel activity (NPo/NPobasal)” value ([1]; 10 μM PROG-oxime, single records (Fig 3E)) was 1.0077 and 0.9962 and 1.086 and 1.4825 and 1.776 and 1.183, the “action on channel activity (NPo)” value [1] was “did not differ from that evoked by vehicle control” and the “vasoactive response of MCA segments” value [2, 3] was “MCA constriction that was preserved”. The “vasoactive response of MCA segments” value ([2]; 10 μM, male and female mice) was “failed to evoke MCA dilation”.
`CC(=O)[C@H]1CC[C@H]2[C@@H]3CCC4=CC(=O)CC[C@]4(C)[C@H]3CC[C@]12C` [PROG, Progesterone] was tested, and the “ECmax (EC100) of channel activation” value ([1]; 0 mV, 30 μM free Ca2+) was 10 µM, the “concentrations at which the channel is activated” value ([1]; 0 mV, 30 μM free Ca2+) was “greater than 0.1 μM” and the NPo/NPobasal ([1]; 0.01 µM PROG, min 2, single records) was 1.005 and 1.018 and 0.9275 and 1.019. The NPo/NPobasal ([1]; 0.01 µM PROG, min 3, single records) was 1.029 and 1.009 and 1.058 and 0.9199, the NPo/NPobasal ([1]; 0.01 µM PROG, min 4, single records) was 1.061 and 1.114 and 0.9928 and 1.089 and the “NPo/NPobasal of the maximal channel activity” value ([1]; 0.01 µM PROG, single records (Fig 1F)) was 1.155 and 1 and 1.022 and 0.9918. The NPo/NPobasal ([1]; 0.1 µM PROG, min 2, single records) was 0.9159 and 1.034 and 0.6663 and 1.012, the NPo/NPobasal ([1]; 0.1 µM PROG, min 3, single records) was 0.7024 and 1.035 and 0.937 and 1.005 and the NPo/NPobasal ([1]; 0.1 µM PROG, min 4, single records) was 0.9376 and 1.037 and 1.102 and 0.9472. For the same molecule, the NPo/NPobasal ([1]; 0.1 µM PROG, min 5, single records) was 0.831 and 1.031 and 0.9946, the NPo/NPobasal ([1]; 0.1 µM PROG, min 6, single records) was 0.9108 and 1.004 and the NPo/NPobasal ([1]; 0.1 µM PROG, min 7, single records) was 0.902 and 1.062. The NPo/NPobasal ([1]; 0.1 µM PROG, min 8, single records) was 0.9384 and 1.053, the NPo/NPobasal ([1]; 0.1 µM PROG, min 9, single records) was 0.9735 and 1.083 and the NPo/NPobasal ([1]; 0.1 µM PROG, min 10, single records) was 1.131 and 1.104. The NPo/NPobasal ([1]; 1 µM PROG, min 2, single records) was 1.067 and 1.036 and 1.018 and 0.9862, the NPo/NPobasal ([1]; 1 µM PROG, min 3, single records) was 1.103 and 0.992 and 0.9993 and 1.0069 and the NPo/NPobasal ([1]; 1 µM PROG, min 4, single records) was 0.9802 and 1.24 and 0.9671 and 1.426. For the same molecule, the NPo/NPobasal ([1]; 1 µM PROG, min 5, single records) was 1.982 and 1.288 and 1.134 and 1.31, the NPo/NPobasal ([1]; 1 µM PROG, min 6, single records) was 1.589 and 1.543 and 1.405 and 1.4 and the NPo/NPobasal ([1]; 1 µM PROG, min 7, single records) was 1.339 and 1.38. For the same molecule, the NPo/NPobasal ([1]; 1 µM PROG, min 8, single records) was 1.498 and 1.434, the NPo/NPobasal ([1]; 1 µM PROG, min 9, single records) was 1.121 and 1.382 and the NPo/NPobasal ([1]; 1 µM PROG, min 10, single records) was 1.43 and 1.377. For the same molecule, the NPo/NPobasal ([1]; 3 µM PROG, min 3, single records) was 1.768 and 1.125 and 1.174, the NPo/NPobasal ([1]; 3 µM PROG, min 4, single records) was 2.026 and 1.046 and 1.706 and the NPo/NPobasal ([1]; 3 µM PROG, min 9, single records) was 2.184 and 1.286. For the same molecule, the NPo/NPobasal ([1]; 3 µM PROG, min 10, single records) was 2.295 and 1.4507, the “normalized NPo, time course Fig 2E” value ([1]; cbv1+beta1, time 1 min (normalisation reference), columns = single bilayers) was 1 and the “normalized NPo, time course Fig 2E” value ([1]; cbv1+beta1, time 2 min) was 1.077 and 1.05 and 1.119 and 1.043 and 0.7556 and 0.908 and 1.053. For the same molecule, the “normalized NPo, time course Fig 2E” value ([1]; cbv1+beta1, time 6 min) was 1.387 and 1.439 and 2.22 and 2.096 and 2.632 and 2.4507 and 1.714, the “normalized NPo, time course Fig 2E” value ([1]; cbv1+beta1, time 7 min) was 1.767 and 1.768 and 2.22 and 2.153 and 1.686 and 2.452 and 1.347 and the “normalized NPo, time course Fig 2E” value ([1]; cbv1+beta1, time 9 min) was 1.702 and 2.262 and 1.688 and 2.653 and 1.535 and 1.822. The “normalized NPo, time course Fig 2E” value ([1]; cbv1+beta1, time 10 min) was 1.856 and 2.788 and 1.831 and 1.767 and 1.527, the “action on channel activity (NPo)” value [1] was “readily and robustly activated” and the NPo/NPobasal ([1]; 100 µM PROG, min 2, single records) was 0.9793 and 1.054 and 0.898. The NPo/NPobasal ([1]; 100 µM PROG, min 3, single records) was 1.51 and 1.02 and 1.024, the NPo/NPobasal ([1]; 100 µM PROG, min 4, single records) was 1.597 and 1.676 and 0.9571 and the NPo/NPobasal ([1]; 100 µM PROG, min 5, single records) was 1.91 and 2.009 and 1.692. The NPo/NPobasal ([1]; 100 µM PROG, min 6, single records) was 2.017 and 2.015 and 2.955, the NPo/NPobasal ([1]; 100 µM PROG, min 7, single records) was 1.186 and 2.342 and 2.352 and the NPo/NPobasal ([1]; 100 µM PROG, min 8, single records) was 1.501 and 2.445 and 2.086. For the same molecule, the NPo/NPobasal ([1]; 100 µM PROG, min 9, single records) was 1.524 and 2.434, the NPo/NPobasal ([1]; 100 µM PROG, min 10, single records) was 1.446 and 2.664 and the “vasoactive response of MCA segments” value [2, 3] was “lost”. The “vasoactive response of MCA segments” value ([2]; 10 μM, male and female mice) was “dilated MCA segments” and the “percent changes in MCA diameter” value ([2]; male mice, 10 μM PROG, individual arterial segments) was 4.2471% and 1.678% and 1.882% and 1.946% and 2.105% and 8.38% and 2.776% and 5.128% and 1.929% and 4.348%.
